# Measured values published in patent US8309718B2, “4-pyrazolyl-N-arylpyrimidin-2-amines and 4-pyrazolyl-N-heteroarylpyrimidin-2-amines as janus kinase inhibitors” (Incyte Corporation, priority 2007, dated 2012).
# Biological target: T1, human JAK2 (Homo sapiens, UniProt O60674)
# T1 construct: JAK2 (a.a. 828-1132); His tag (N); made in house; host or cells: insect cells (baculovirus)
# Assay: In vitro JAK kinase assay (HTRF, phosphorylation of biotinylated peptide)
# Format: biochemical
# Details: catalytic domain a.a. 828-1132, 30 μM ATP, 500 nM peptide, room temperature 1 hr; read-out: JAK-2 IC50
# In short: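 His-tagged human JAK2 catalytic domain (a.a. 828-1132), baculovirus/insect-cell expressed; phosphorylation of 500 nM biotinylated peptide at 30 μM ATP in 50 mM Tris pH 7.8, 100 mM NaCl, 5 mM DTT, 0.01% BSA. 1 h at room temperature, EDTA stop, HTRF read (Eu-Py20/SA-APC); IC50.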
# T1 sequence (O60674 828-1132): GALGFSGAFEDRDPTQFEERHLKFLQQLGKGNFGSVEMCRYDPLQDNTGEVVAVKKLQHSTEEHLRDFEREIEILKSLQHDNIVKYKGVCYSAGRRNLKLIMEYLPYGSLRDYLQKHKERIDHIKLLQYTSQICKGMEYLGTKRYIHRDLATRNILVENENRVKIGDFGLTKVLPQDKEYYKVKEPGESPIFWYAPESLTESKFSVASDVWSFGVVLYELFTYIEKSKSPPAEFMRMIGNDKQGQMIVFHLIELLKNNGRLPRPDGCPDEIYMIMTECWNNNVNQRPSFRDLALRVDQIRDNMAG
row,SMILES,IC50
1,"N#CCC(C1CC1)n1cc(-c2ccnc(Nc3ccc(C(=O)N4C5CC6CC4CC(C5)O6)cc3)n2)cn1 (racemic) [Example 262, 3-cyclopropyl-3-(4-(2-(4-(2-oxa-6-azatricyclo[3.3.1.1(3,7)]dec-6-ylcarbonyl)phenyl)aminopyrimidin-4-yl)-1H-pyrazol-1-yl)propanenitrile]",< 100 nM
2,"COC1CCN(C(=O)c2ccc(Nc3nccc(-c4cnn(C(CC#N)C5CC5)c4)n3)cc2)CC1 (racemic) [Example 263, 3-cyclopropyl-3-(4-(2-(4-(4-methoxypiperidine-1-carbonyl)phenylamino)pyrimidin-4-yl)-1H-pyrazol-1-yl)propanenitrile]",< 100 nM
3,"CN1CCN(C(=O)c2ccc(Nc3nccc(-c4cnn(C(CC#N)C5CC5)c4)n3)cc2)CC1 (racemic) [Example 267, 3-cyclopropyl-3-(4-(2-(4-(4-methylpiperazine-1-carbonyl)phenylamino)pyrimidin-4-yl)-1H-pyrazol-1-yl)propanenitrile]",< 100 nM
4,"CC(=O)N1CCN(C(=O)c2ccc(Nc3nccc(-c4cnn(C(CC#N)C5CC5)c4)n3)cc2)CC1 (racemic) [Example 269, 3-(4-(2-(4-(4-acetylpiperazine-1-carbonyl)phenylamino)pyrimidin-4-yl)-1H-pyrazol-1-yl)-3-cyclopropylpropanenitrile]",< 100 nM
5,"CCOC(=O)N1CCC(NC(=O)c2ccc(Nc3nccc(-c4cnn(C(CC#N)C5CC5)c4)n3)cc2)CC1 (racemic) [Example 272, Ethyl 4-(4-(4-(1-(2-cyano-1-cyclopropylethyl)-1H-pyrazol-4-yl)pyrimidin-2-ylamino)benzoyl)aminopiperidine-1-carboxylate]",< 100 nM
6,"CCS(=O)(=O)N1CC(CC#N)(n2cc(-c3ccnc(Nc4ccc(C(=O)N5CCC(N(C)C)C5)cc4)n3)cn2)C1 (racemic) [Example 282, 2-(3-(4-(2-(4-(3-(dimethylamino)pyrrolidine-1-carbonyl)phenylamino)pyrimidin-4-yl)-1H-pyrazol-1-yl)-1-(ethylsulfonyl)azetidin-3-yl)acetonitrile]",< 100 nM
7,"COc1cnc(Nc2ccc(C(=O)N3CCOCC3)cc2)nc1-c1cnn(C(CC#N)C2CCCC2)c1 (racemic) [Example 302, 3-cyclopentyl-3-(4-(5-methoxy-2-(4-(morpholine-4-carbonyl)phenylamino)pyrimidin-4-yl)-1H-pyrazol-1-yl)propanenitrile]",< 100 nM
8,"COc1cnc(Nc2ccc(C(=O)N3CCCC3)cc2)nc1-c1cnn(C(CC#N)C2CCCC2)c1 (racemic) [Example 303, 3-cyclopentyl-3-(4-(5-methoxy-2-(4-(pyrrolidine-1-carbonyl)phenylamino)pyrimidin-4-yl)-1H-pyrazol-1-yl)propanenitrile]",< 100 nM
9,"COc1cnc(Nc2ccc(C(=O)N3CCN(C)CC3)cc2)nc1-c1cnn(C(CC#N)C2CCCC2)c1 (racemic) [Example 304, 3-cyclopentyl-3-(4-(5-methoxy-2-(4-(4-methylpiperazine-1-carbonyl)phenylamino)pyrimidin-4-yl)-1H-pyrazol-1-yl)propanenitrile]",< 100 nM
10,"COc1cnc(Nc2ccc(C(=O)NC3CCOCC3)cc2)nc1-c1cnn(C(CC#N)C2CCCC2)c1 (racemic) [Example 305, 4-(4-(1-(2-cyano-1-cyclopentylethyl)-1H-pyrazol-4-yl)-5-methoxypyrimidin-2-ylamino)-N-(tetrahydro-2H-pyran-4-yl)benzamide]",< 100 nM
11,"N#CCC(C1CCCC1)n1cc(-c2ccnc(Nc3ccc(OCCN4CCCC4)cc3)n2)cn1 (racemic) [Example 306, 3-cyclopentyl-3-[4-(2-{[4-(2-pyrrolidin-1-ylethoxy)phenyl]amino}pyrimidin-4-yl)-1H-pyrazol-1-yl]propanenitrile]",< 100 nM
12,"N#CCC(C1CCOCC1)n1cc(-c2ccnc(Nc3ccc(N4CCOCC4)cc3)n2)cn1 (racemic) [Example 308, 3-(4-{2-[(4-morpholin-4-ylphenyl)amino]pyrimidin-4-yl}-1H-pyrazol-1-yl)-3-(tetrahydro-2H-pyran-4-yl)propanenitrile]",< 100 nM
13,"N#CCC(C1CCOCC1)n1cc(-c2ccnc(Nc3ccc(C(=O)N4CCCC4)cc3)n2)cn1 (racemic) [Example 310, 3-[4-(2-{[4-(pyrrolidin-1-ylcarbonyl)phenyl]amino}pyrimidin-4-yl)-1H-pyrazol-1-yl]-3-(tetrahydro-2H-pyran-4-yl)propanenitrile]",< 100 nM
14,"N#CCC(C1CCOCC1)n1cc(-c2ccnc(Nc3ccc(C(=O)N4CCOCC4)cc3)n2)cn1 (racemic) [Example 311, 3-[4-(2-{[4-(morpholin-4-ylcarbonyl)phenyl]amino}pyrimidin-4-yl)-1H-pyrazol-1-yl]-3-(tetrahydro-2H-pyran-4-yl)propanenitrile]",< 100 nM
15,"N#CCC(C1CCOCC1)n1cc(-c2ccnc(Nc3ccc(C(=O)N4CCC(O)CC4)cc3)n2)cn1 (racemic) [Example 312, 3-{4-[2-({4-[(4-hydroxypiperidin-1-yl)carbonyl]phenyl}amino)pyrimidin-4-yl]-1H-pyrazol-1-yl}-3-(tetrahydro-2H-pyran-4-yl)propanenitrile]",< 100 nM
16,"COC1CCN(C(=O)c2ccc(Nc3nccc(-c4cnn(C(CC#N)C5CCOCC5)c4)n3)cc2)CC1 (racemic) [Example 313, 3-{4-[2-({4-[(4-methoxypiperidin-1-yl)carbonyl]phenyl}amino)pyrimidin-4-yl]-1H-pyrazol-1-yl}-3-(tetrahydro-2H-pyran-4-yl)propanenitrile]",< 100 nM
17,"N#CCC(C1CCOCC1)n1cc(-c2ccnc(Nc3ccc(C(=O)N4CCC(C#N)CC4)cc3)n2)cn1 (racemic) [Example 314, 1-{4-[(4-{1-[2-cyano-1-(tetrahydro-2H-pyran-4-yl)ethyl]-1H-pyrazol-4-yl}pyrimidin-2-yl)amino]benzoyl}piperidine-4-carbonitrile]",< 100 nM
18,"N#CCC(C1CC1)n1cc(-c2ccnc(Nc3ccc(C(=O)N4CCC(C#N)CC4)cc3)n2)cn1 (racemic) [Example 318, 1-[4-({4-[1-(2-cyano-1-cyclopropylethyl)-1H-pyrazol-4-yl]pyrimidin-2-yl}amino)benzoyl]piperidine-4-carbonitrile]",< 100 nM
19,"CCS(=O)(=O)N1CC(CC#N)(n2cc(-c3ccnc(Nc4ccc(C(=O)N5CCC(C#N)CC5)cc4)n3)cn2)C1 (racemic) [Example 319, 1-{4-[(4-{1-[3-(cyanomethyl)-1-(ethylsulfonyl)azetidin-3-yl]-1H-pyrazol-4-yl}pyrimidin-2-yl)amino]benzoyl}piperidine-4-carbonitrile]",< 100 nM
20,"COc1cnc(Nc2cccc(-c3cnco3)c2)nc1-c1cnn(C(CC#N)C2CC2)c1 (racemic) [Example 320, 3-cyclopropyl-3-[4-(5-methoxy-2-{[3-(1,3-oxazol-5-yl)phenyl]amino}pyrimidin-4-yl)-1H-pyrazol-1-yl]propanenitrile]",< 100 nM
21,"COc1cnc(Nc2cccc([N+](=O)[O-])c2)nc1-c1cnn(C(CC#N)C2CC2)c1 (racemic) [Example 321, 3-cyclopropyl-3-(4-{5-methoxy-2-[(3-nitrophenyl)amino]pyrimidin-4-yl}-1H-pyrazol-1-yl)propanenitrile]",< 100 nM
22,"COc1cnc(Nc2cccc(C(=O)NC3CCOCC3)c2)nc1-c1cnn(C(CC#N)C2CC2)c1 (racemic) [Example 323, 3-({4-[1-(2-cyano-1-cyclopropylethyl)-1H-pyrazol-4-yl]-5-methoxypyrimidin-2-yl}amino)-N-(tetrahydro-2H-pyran-4-yl)benzamide]",< 100 nM
23,"COc1cnc(Nc2cccc(C(=O)N3CCCC3)c2)nc1-c1cnn(C(CC#N)C2CC2)c1 (racemic) [Example 324, 3-cyclopropyl-3-[4-(5-methoxy-2-{[3-(pyrrolidin-1-ylcarbonyl)phenyl]amino}pyrimidin-4-yl)-1H-pyrazol-1-yl]propanenitrile]",< 100 nM
24,"COc1cnc(Nc2cccc(C(=O)N3CCOCC3)c2)nc1-c1cnn(C(CC#N)C2CC2)c1 (racemic) [Example 328, 3-cyclopropyl-3-[4-(5-methoxy-2-{[3-(morpholin-4-ylcarbonyl)phenyl]amino}pyrimidin-4-yl)-1H-pyrazol-1-yl]propanenitrile]",< 100 nM
25,"COc1cnc(Nc2cccc(C(=O)N3CCC(O)CC3)c2)nc1-c1cnn(C(CC#N)C2CC2)c1 (racemic) [Example 329, 3-cyclopropyl-3-{4-[2-({3-[(4-hydroxypiperidin-1-yl)carbonyl]phenyl}amino)-5-methoxypyrimidin-4-yl]-1H-pyrazol-1-yl}propanenitrile]",< 100 nM
26,"COc1cnc(Nc2cccc(C(=O)N3CCC(OC)CC3)c2)nc1-c1cnn(C(CC#N)C2CC2)c1 (racemic) [Example 330, 3-cyclopropyl-3-{4-[5-methoxy-2-({3-[(4-methoxypiperidin-1-yl)carbonyl]phenyl}amino)pyrimidin-4-yl]-1H-pyrazol-1-yl}propanenitrile]",< 100 nM
27,"COc1cnc(Nc2cccc(C(=O)N3CCC(C#N)CC3)c2)nc1-c1cnn(C(CC#N)C2CC2)c1 (racemic) [Example 331, 1-[3-({4-[1-(2-cyano-1-cyclopropylethyl)-1H-pyrazol-4-yl]-5-methoxypyrimidin-2-yl}amino)benzoyl]piperidine-4-carbonitrile]",< 100 nM
28,"COc1cnc(Nc2cccc(C(=O)N3[C@@H]4CC[C@H]3C[C@@H](O)C4)c2)nc1-c1cnn(C(CC#N)C2CC2)c1 (mixture of isomers) [Example 332, 3-cyclopropyl-3-(4-{2-[(3-{[(3-endo)-3-hydroxy-8-azabicyclo[3.2.1]oct-8-yl]carbonyl}phenyl)amino]-5-methoxypyrimidin-4-yl}-1H-pyrazol-1-yl)propanenitrile]",< 100 nM
